According to patent US12011441B2, “Pimobendan for the reduction of heart size and/or the delay of onset of clinical symptoms in patients with asymptomatic heart failure due to mitral valve disease” (Boehringer Ingelheim Vetmedica GmbH, priority 2016, dated 2024):

Tested on: dogs with MMVD and echocardiographic and radiographic evidence of cardiomegaly
Source text: Vertebral heart sum, another measure of heart size, was obtained at regular intervals—every eight months—from those animals that remained in the study. There are various ways in which this can be compared between groups. The most useful way to summarise and compare the average vertebral heart score in each group for the duration of the study is to generate an “area under the curve” value that represents a single summary statistic for each dog from which more than two measurements were obtained [Matthews J N et al., BMJ 1990, 300(6719): 230-235]. This method has been used previously in veterinary studies [Häggström J et al., J Vet Intern Med 2013, 27(6): 1441-1451].

COc1ccc(-c2nc3ccc(C4=NNC(=O)CC4C)cc3[nH]2)cc1 (centres unmarked) [pimobendan, 4,5-dihydro-6-[2-(4-methoxyphenyl)-1H-benzimidazol-5-yl]-5-methyl-3(2H)-pyridazinone]
VHS Median (average vertebral heart score over the duration of the study, placebo 11.90, P = 0.0009): 11.54
difference in median vertebral heart score vs placebo (averaged over the entire duration of the study (area under the curve), dogs remaining in the study): approximately 0.35 vertebrae
rate or type of potential adverse events observed (dog, in vivo): no difference between groups
safety and tolerability (dog, in vivo): safe and well tolerated
heart size compared to the placebo group (measured over the first 35 days of the study, P<0.0001): reduction in heart size
